Compound in one assay: NC(=O)CCCCC1CCSS1 [lipoamide]
Put plainly: thermal stability z-score vs DMSO; higher = more thermally stabilized by treatment. As to conditions: HeLa, lipoamide concentration 100 µM. The method, then: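 Cellular thermal proteome profiling in HeLa cells. Cells were treated with 100 µM lipoamide for 1 h, with or without 1 mM arsenate for a further 1 h, then heated to ten temperatures (37-66.3 °C), and soluble protein was quantified by TMT mass spectrometry relative to 0.1% DMSO controls. The thermal stability score (sum of log2 fold changes minus the abundance score) was transformed to a z-score; mean of n = 3 experiments.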

Compound in the next assay: O=[As]([O-])(O)O.[K+] [potassium arsenate]
The assay is described as above. To be noted: HeLa; arsenate concentration 1 mM. The method, then:
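Cellular thermal proteome profiling in HeLa cells treated with 1 mM arsenate for 1 h (DMSO pretreatment), heated to ten temperatures (37-66.3 °C). Soluble protein was quantified by TMT mass spectrometry relative to DMSO controls; the thermal stability score was transformed to a z-score; mean of n = 3 experiments.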

Where [1] appears, read: arsenate co-treatment: 1 mM arsenate 1 h.
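Note: each temperature applied for 3 min, abundance score taken as mean log2 fold change at the two lowest temperatures, z-score obtained by mean subtraction and division by SD.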

Chain of UniProt P78332 (P78332 whole entry): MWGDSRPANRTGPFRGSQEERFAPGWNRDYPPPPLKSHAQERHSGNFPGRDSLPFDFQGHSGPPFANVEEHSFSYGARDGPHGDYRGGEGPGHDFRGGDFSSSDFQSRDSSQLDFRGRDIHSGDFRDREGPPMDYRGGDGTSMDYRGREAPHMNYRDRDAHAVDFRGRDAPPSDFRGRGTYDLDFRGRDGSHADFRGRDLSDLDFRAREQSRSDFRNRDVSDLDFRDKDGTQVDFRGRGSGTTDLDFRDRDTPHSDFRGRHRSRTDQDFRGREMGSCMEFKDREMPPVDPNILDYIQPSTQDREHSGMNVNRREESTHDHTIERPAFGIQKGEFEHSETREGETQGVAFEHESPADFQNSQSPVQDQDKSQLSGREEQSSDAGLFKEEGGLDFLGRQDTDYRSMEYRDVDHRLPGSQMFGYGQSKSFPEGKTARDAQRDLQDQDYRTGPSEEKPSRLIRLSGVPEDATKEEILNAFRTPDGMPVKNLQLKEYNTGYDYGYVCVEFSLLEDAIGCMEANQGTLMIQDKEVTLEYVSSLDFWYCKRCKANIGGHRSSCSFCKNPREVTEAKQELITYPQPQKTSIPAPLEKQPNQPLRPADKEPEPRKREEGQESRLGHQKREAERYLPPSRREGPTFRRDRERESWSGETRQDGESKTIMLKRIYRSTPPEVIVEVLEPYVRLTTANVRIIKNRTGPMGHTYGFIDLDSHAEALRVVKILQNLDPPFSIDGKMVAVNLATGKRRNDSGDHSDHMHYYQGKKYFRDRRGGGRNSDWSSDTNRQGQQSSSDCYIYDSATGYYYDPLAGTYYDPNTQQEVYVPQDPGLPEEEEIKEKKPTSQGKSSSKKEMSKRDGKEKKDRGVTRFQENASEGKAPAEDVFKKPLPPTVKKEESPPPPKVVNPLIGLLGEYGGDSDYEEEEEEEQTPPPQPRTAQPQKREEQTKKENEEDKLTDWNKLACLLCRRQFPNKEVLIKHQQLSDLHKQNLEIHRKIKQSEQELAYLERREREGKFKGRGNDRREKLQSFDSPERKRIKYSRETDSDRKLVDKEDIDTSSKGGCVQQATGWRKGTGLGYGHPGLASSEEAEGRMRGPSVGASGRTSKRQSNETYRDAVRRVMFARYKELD
Chain of UniProt Q15283 (Q15283 whole entry): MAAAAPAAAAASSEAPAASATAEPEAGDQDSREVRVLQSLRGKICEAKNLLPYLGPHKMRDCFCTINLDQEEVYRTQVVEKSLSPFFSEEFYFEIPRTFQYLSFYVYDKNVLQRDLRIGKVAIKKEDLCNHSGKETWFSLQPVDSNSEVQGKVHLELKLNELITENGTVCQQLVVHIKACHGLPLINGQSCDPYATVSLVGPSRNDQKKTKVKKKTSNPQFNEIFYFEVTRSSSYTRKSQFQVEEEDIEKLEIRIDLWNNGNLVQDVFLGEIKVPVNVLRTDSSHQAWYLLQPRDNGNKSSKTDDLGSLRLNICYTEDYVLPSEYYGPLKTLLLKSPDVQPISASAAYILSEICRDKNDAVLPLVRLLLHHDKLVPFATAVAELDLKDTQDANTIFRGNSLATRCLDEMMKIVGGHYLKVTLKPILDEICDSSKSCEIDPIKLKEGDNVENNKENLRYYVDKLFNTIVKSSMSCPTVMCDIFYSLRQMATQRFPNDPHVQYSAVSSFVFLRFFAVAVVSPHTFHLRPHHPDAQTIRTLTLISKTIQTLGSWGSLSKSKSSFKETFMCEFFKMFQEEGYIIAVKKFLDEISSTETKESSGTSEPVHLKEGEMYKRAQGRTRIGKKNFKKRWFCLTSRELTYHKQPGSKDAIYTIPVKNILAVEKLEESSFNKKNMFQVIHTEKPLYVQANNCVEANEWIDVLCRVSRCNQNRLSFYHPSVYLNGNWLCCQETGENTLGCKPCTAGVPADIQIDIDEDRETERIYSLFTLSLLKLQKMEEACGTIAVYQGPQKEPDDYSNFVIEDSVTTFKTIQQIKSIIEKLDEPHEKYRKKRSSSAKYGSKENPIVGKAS
Chain of UniProt O43251 (O43251 whole entry): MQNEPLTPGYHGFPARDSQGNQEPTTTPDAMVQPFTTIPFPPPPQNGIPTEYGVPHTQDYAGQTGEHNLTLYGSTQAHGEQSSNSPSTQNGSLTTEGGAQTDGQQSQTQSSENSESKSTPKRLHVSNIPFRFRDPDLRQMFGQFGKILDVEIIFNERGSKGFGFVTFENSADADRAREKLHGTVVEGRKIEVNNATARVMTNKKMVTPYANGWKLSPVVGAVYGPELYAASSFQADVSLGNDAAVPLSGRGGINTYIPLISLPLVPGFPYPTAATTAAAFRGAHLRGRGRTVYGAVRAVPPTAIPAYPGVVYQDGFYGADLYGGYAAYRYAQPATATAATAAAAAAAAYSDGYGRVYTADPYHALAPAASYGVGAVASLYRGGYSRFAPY
Chain of UniProt P98179 (P98179 whole entry): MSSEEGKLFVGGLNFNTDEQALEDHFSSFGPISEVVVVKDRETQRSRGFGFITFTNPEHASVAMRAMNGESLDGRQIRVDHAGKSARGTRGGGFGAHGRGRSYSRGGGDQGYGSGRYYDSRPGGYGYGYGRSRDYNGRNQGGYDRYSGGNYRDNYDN
Chain of UniProt Q96PK6 (Q96PK6 whole entry): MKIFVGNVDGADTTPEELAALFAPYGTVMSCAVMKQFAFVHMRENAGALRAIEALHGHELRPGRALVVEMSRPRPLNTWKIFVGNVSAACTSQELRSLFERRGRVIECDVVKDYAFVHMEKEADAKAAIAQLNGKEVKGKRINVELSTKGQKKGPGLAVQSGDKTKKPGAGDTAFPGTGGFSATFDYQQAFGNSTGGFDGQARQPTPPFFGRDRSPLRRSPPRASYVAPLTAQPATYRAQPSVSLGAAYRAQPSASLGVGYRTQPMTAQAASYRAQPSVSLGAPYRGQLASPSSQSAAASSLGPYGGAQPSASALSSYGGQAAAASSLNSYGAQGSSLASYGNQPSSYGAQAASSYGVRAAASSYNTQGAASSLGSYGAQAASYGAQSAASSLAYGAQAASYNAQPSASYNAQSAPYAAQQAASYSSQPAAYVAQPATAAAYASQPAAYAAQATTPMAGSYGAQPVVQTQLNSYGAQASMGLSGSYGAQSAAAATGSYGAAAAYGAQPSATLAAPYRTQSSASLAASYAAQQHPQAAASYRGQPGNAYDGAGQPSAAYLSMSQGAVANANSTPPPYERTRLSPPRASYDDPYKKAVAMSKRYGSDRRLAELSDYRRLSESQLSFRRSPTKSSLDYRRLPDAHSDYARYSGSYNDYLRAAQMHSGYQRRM
Chain of UniProt Q9Y580 (Q9Y580 whole entry): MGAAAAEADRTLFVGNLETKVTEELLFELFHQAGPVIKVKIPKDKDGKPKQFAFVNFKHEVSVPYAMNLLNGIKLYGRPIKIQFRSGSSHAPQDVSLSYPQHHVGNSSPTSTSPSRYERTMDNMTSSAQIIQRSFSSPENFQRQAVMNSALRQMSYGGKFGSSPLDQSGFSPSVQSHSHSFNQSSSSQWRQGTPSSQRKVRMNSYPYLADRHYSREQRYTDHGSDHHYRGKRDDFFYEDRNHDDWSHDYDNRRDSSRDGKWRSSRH
Chain of UniProt Q9HCJ3 (Q9HCJ3 whole entry): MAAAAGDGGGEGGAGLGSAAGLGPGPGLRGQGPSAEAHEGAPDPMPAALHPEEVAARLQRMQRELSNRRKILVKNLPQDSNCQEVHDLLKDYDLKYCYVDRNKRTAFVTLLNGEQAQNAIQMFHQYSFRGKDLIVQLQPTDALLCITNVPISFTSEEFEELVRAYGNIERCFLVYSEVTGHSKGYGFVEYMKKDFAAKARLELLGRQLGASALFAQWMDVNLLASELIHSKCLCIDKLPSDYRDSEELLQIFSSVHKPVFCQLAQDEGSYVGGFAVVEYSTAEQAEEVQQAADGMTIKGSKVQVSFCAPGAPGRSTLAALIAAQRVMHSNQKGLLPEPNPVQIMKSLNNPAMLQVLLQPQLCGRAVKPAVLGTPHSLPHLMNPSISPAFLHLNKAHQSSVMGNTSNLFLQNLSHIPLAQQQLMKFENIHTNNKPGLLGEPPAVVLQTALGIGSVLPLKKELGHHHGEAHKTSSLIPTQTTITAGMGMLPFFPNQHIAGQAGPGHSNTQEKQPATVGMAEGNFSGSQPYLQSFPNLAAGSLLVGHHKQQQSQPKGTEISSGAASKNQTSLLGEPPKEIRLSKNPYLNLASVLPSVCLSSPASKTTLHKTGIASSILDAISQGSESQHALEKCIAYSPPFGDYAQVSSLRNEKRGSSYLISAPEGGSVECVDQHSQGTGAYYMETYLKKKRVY
Chain of UniProt Q15291 (Q15291 whole entry): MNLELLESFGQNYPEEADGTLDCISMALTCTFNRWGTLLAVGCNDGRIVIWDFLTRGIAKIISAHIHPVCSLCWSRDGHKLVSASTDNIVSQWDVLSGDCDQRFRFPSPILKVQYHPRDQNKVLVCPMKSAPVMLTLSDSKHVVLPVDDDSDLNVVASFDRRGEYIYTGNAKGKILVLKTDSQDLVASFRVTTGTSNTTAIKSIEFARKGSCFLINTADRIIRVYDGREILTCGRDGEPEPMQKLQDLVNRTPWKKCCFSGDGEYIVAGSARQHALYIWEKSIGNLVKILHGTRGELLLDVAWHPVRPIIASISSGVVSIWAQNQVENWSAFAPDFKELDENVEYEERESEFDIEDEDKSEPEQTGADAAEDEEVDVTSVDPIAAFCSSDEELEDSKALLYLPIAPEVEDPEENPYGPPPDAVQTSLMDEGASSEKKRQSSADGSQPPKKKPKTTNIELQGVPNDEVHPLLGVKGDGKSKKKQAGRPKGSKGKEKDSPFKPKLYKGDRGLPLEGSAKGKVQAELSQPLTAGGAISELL
Chain of UniProt O75884 (O75884 whole entry, looked up): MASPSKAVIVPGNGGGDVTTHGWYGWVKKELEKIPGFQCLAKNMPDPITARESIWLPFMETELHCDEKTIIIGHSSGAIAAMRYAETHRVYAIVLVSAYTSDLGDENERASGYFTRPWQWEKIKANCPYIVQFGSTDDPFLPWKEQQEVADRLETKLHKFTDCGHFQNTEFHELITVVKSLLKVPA

For RASA2 (UniProt Q15283), the thermal stability z-score with lipoamide (setting [1]) was -0.0591; with lipoamide (arsenate co-treatment: none) it was -0.273; with potassium arsenate it was -0.334.
In the same order, the values of RASA3 (UniProt Q14644) are 0.0194, 0.0519 and 0.0995.
In the same order, the values of RASAL2 (UniProt Q9UJF2) are -0.126, 0.0905 and -0.227.
For RASSF1 (UniProt Q9NS23), in that order: -0.0475, 0.04 and -0.089.
Turning to RASSF5 (UniProt Q8WWW0), the thermal stability z-score was -0.444 with lipoamide (setting [1]), -0.459 with lipoamide (arsenate co-treatment: none) and 0.498 with potassium arsenate.
For RASSF8 (UniProt Q8NHQ8), the thermal stability z-score with lipoamide (setting [1]) is -0.0675; with lipoamide (arsenate co-treatment: none), -0.05; with potassium arsenate it was -0.0803.
For the target RAVER1 (UniProt Q8IY67), the thermal stability z-score was -0.141 in the assay with lipoamide (setting [1]), -0.0728 with lipoamide (arsenate co-treatment: none) and -0.162 with potassium arsenate.
For RAVER2 (UniProt Q9HCJ3), in that order: 0.204, 0.253 and -0.0887.
On to RB1 (UniProt P06400), for which the thermal stability z-score in the assay with lipoamide (setting [1]) is 0.306; with lipoamide (arsenate co-treatment: none), 0.229; with potassium arsenate, -0.64.
For RB1CC1 (UniProt Q8TDY2), in that order: -0.502, -0.143 and 0.893.
For RBBP4 (UniProt Q09028), in that order: 0.868, 0.934 and -0.0159.
Take RBBP5 (UniProt Q15291): the thermal stability z-score in the assay with lipoamide (setting [1]) is 1.23; with lipoamide (arsenate co-treatment: none) it was 0.518; with potassium arsenate it was -0.769.
As to RBBP6 (UniProt Q7Z6E9), the thermal stability z-score in the assay with lipoamide (setting [1]) was 0.06; with lipoamide (arsenate co-treatment: none) it was -0.0854; with potassium arsenate it was -0.263.
For RBBP7 (UniProt Q16576), the thermal stability z-score with lipoamide (setting [1]) was 0.794; with lipoamide (arsenate co-treatment: none) it was 0.539; in the assay with potassium arsenate it was -0.595.
For RBBP9 (UniProt O75884), in that order: 0.308, 0.162 and 0.167.
As to RBFOX2 (UniProt O43251), the results for the thermal stability z-score in the assay with lipoamide (setting [1]), in the assay with lipoamide (arsenate co-treatment: none) and with potassium arsenate were -0.112, 0.314 and 0.171, respectively.
For RBKS (UniProt Q9H477), in that order: -0.0153, -0.521 and 0.335.
For RBM3 (UniProt P98179), in that order: 0.0805, -0.138 and 0.167.
On to RBM4 (UniProt Q9BWF3), for which the thermal stability z-score stood at 0.135 with lipoamide (setting [1]), 0.129 in the assay with lipoamide (arsenate co-treatment: none) and 0.216 with potassium arsenate.
As for RBM6 (UniProt P78332), the thermal stability z-score in the assay with lipoamide (setting [1]) is -0.00588; with lipoamide (arsenate co-treatment: none), 0.0644; in the assay with potassium arsenate, 0.000188.
For the target RBM7 (UniProt Q9Y580), the thermal stability z-score in the assay with lipoamide (setting [1]) stood at 0.00736; with lipoamide (arsenate co-treatment: none), 0.0818; with potassium arsenate it was 0.0182.
In the same order, the values of RBM8A (UniProt Q9Y5S9) are -0.156, 0.28 and 0.0981.
On to RBM10, for which the thermal stability z-score came to 3.5 with lipoamide (setting [1]), 2.13 with lipoamide (arsenate co-treatment: none) and 1.25 with potassium arsenate.
RBM12 (UniProt Q9NTZ6): the thermal stability z-score was -0.205 with lipoamide (setting [1]), -0.19 in the assay with lipoamide (arsenate co-treatment: none) and -0.506 with potassium arsenate.
In the same order, the values of RBM14 (UniProt Q96PK6) are -0.169, -0.0944 and -0.803.
In the same order, the values of RBM15 (UniProt Q96T37) are -0.454, -0.0697 and -0.321.
In the same order, the values of RBM17 (UniProt Q96I25) are 0.528, 0.441 and 0.243.

These data come from the supplement of paper PMC12463676, “Small-molecule dissolution of stress granules by redox modulation benefits ALS models” (Nature Chemical Biology, 2025).
